We go through one substance from patent publication US12311049B2, “Formulation of ear drops and methods for delivery thereof for treating upper respiratory infections” (priority 2023, dated 2025).

Assay type in all cases: cell-based
The test system of assay [1] is SARS-CoV-2 BA.5.
Assay [2] deals with SARS-CoV-2 BA.1.
Assay [3] deals with SARS-CoV-2 BA.2.
The subject of assay [4] is SARS-CoV-2 XBB1.5.
Assay [5] relates to original WA1 viral strain of SARS-CoV-2. In words: in vitro infectivity of SARS-CoV-2 to epithelial cells expressing ACE-2 and TMPRSS-2 (virus-NP protein in culture media). Particulars: MOI 0.01.
For assay [6], the system named is SARS-CoV-2 XBB.

As to hemin, the “suppression of replication of SARS-CoV-2 BA.5” value in assay [1] was “significantly suppressed replication”. Besides, in assay [2], the “dose response of inhibition of SARS-CoV-2 BA.1 (virus-NP protein levels)” value is “dose-dependent inhibition” and the “protection of cells against SARS-CoV-2 BA.1 infection” value is reported as “protected cells”. The “suppression of replication of SARS-CoV-2 BA.2” value in assay [3] is listed as “significantly suppressed replication”. For the same substance, the “suppression of replication of SARS-CoV-2 XBB1.5” value in assay [4] is listed as “significantly suppressed replication”. The “suppression of SARS-CoV-2 infection, original WA1 viral strain” value in assay [5] is on record as “markedly suppressed”. The “suppression of replication of SARS-CoV-2 XBB” value in assay [6] is listed as “significantly suppressed replication”.
